Values of other authors in patent US20240366601A1, “METHODS FOR TREATING TRAUMATIC BRAIN INJURY” (The Regents of the University of California, priority 2021, published 2024).

Experiments:
CDK4 = CDK4 (Homo sapiens, UniProt P11802); conditions: for CDK4; read-out: in vitro IC50 (nM) in cell-free assays
[1] = FDA-approved doses for cancer treatments; list continues over the following table lines

Chain of CDK4 (P11802 whole entry): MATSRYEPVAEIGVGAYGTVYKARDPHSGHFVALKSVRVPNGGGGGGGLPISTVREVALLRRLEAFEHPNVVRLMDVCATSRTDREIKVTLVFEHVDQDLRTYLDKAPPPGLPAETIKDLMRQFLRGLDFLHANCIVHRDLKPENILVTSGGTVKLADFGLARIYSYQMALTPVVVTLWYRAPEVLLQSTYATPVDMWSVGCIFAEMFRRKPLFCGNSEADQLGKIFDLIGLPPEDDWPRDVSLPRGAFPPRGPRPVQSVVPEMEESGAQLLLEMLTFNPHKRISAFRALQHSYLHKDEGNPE
Chain of CDK4 (P24385 whole entry partner): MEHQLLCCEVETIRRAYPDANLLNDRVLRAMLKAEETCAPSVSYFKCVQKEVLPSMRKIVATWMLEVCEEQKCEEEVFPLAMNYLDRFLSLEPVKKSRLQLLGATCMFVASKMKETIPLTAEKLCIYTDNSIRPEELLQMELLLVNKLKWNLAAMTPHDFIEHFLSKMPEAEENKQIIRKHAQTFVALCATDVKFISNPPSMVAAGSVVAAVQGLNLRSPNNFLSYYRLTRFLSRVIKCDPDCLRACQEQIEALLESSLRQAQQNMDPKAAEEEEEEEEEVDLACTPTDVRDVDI

| IC50 (CDK4) [nM] | Compound | Common Side effects at FDA-approved doses (Medline Plus) [1] |
| --- | --- | --- |
| 3.9 | CN1CCN(c2ccc(Nc3ncc4cc(C#N)c(=O)n(C5CCCC5)c4n3)cc2)CC1 [ON123300] |  |
|  | CCN1CCN(Cc2ccc(Nc3ncc(F)c(-c4cc(F)c5nc(C)n(C(C)C)c5c4)n3)nc2)CC1 [abemaciclib] | diarrhea, nausea, abdominal pain, infections, tiredness, anemia, leukopenia, |
|  | CN(C)C(=O)c1cc2cnc(Nc3ccc(N4CCNCC4)cn3)nc2n1C1CCCC1 [ribociclib] | diarrhea; constipation; stomach pain; headache; hair loss; back pain; itching; |
